Test results reported in patent US9326506B2, “Preparation method, agricultural composition and applications of natural brassinolide analogs” (CHENGDU NEWSUN CROPSCIENCE CO., LTD, priority 2012, dated 2016).

Assays:
rice seed = test: Salt tolerance assay: germination of rice seed under high salt environment; assay type: in vivo
Text: According to a salt tolerance assay, we measured germination of rice seed under high salt environment to determine effects of the natural brassinolide analogues on the salt tolerance of a plant.
The natural brassinolide analogues, BR1, BR2, BR3, BR4, BR5 and BR6, used herein, were those prepared by the method of Example 1. And BR1, BR2, BR3, BR4, BR5 and BR6 were mixed into a mixture of brassinolide analogues (referred to as “BRs”, in which the weight ratio of BR1:BR2:BR3:BR4:BR5:BR6 is 0.4:0.4:0.4:0.4:0.4:98). Respectively the analogues and the mixture were dissolved into 95% (V/V) ethanol solution, and then diluted with pure water to 1 mg/L, 0.1 mg/L, 0.01 mg/L, 0.001 mg/L and 0.0001 mg/L. In addition, pure water was used as a control. Furthermore, NaCl was added to the above solutions containing different concentrations of the natural brassinolide analogues or pure water respectively, and the concentrations of the salt are 300, 400, 500 and 600 mg/L respectively.
After rice seeds were disinfected by using 5% sodium hypochlorite solution treatment, they were rinsed with distilled water until their pH>7, placed into a petri dish in a dark incubator, and cultured at 30° C.±2° C. by using the above solutions containing different concentrations of the natural brassinolide analogues or pure water for observing the germination and calculating germination rates. The results are shown in tables 4-0˜4-4, which indicate that relative to the control, each of the natural brassinolide analogues and the mixture were capable of increasing germination rates of rice under high salt environment so as to enhance the salt tolerance of a plant; and substantially the enhancement of the germination rates was positively correlated to the concentrations of the natural brassinolide analogues and the mixture.

rice = test: Rice leaf bending assay (leaf inclination angle); assay type: in vivo; settings: for Average angle / Total angle: 48 hr; for Total angle: sum of 20 rice
Text: According to a rice leaf bending assay, we measured leaf inclination angle of rice to determine effects of the natural brassinolide analogues on the enhancement of plant development. The larger the leaf inclination angle of rice, the more effects on plant development. The detailed assay procedure is as follows:
The natural brassinolide analogues, BR1, BR2, BR3, BR4, BR5 and BR6, used herein, were those prepared by the method of Example 1. And BR1, BR2, BR3, BR4, BR5 and BR6 were mixed into a mixture of brassinolide analogues (referred to as “BRs”, in which the weight ratio of BR1:BR2:BR3:BR4:BR5:BR6 is 0.4:0.4:0.4:0.4:0.4:98). Respectively the analogues and the mixture were dissolved into 95% (V/V) ethanol solution, and then diluted with pure water to 1 mg/L, 0.1 mg/L, 0.01 mg/L, 0.001 mg/L and 0.0001 mg/L. In addition, pure water was used as a control.
After rice seeds were disinfected by using 5% sodium hypochlorite solution treatment, they were rinsed with distilled water until their pH>7, placed into a petri dish in a dark incubator, and cultured by using water at 30° C.±2° C. for 9 days. Then the nine-day-old etiolated seedlings of rice were cut around the center of the base of second leaf to segments with 1 cm leaf and 1 cm leaf sheath. The leaf segments were floated in distilled water, placed in a dark incubator, cultured at 30° C.±2° C. for 24 hr, and then dried by a filter paper. The dried leaf segments were respectively immersed in the above solutions containing different concentrations of the natural brassinolide analogues or pure water, and cultured in a dark incubator at 30° C.±2° C. for 48 hr. Every solution or pure water contained the leaf segments from 20 rice. Then the inclination angle between the second leaf and the leaf sheath of the leaf segments was measured by a protractor.

[1] = sample 0.0001 mg/l, salt 300 mg/l
[2] = sample 0.0001 mg/l, salt 400 mg/l
[3] = sample 0.0001 mg/l, salt 500 mg/l
[4] = sample 0.0001 mg/l, salt 600 mg/l
[5] = sample 0.001 mg/l, salt 300 mg/l
[6] = sample 0.001 mg/l, salt 400 mg/l
[7] = sample 0.001 mg/l, salt 500 mg/l
[8] = sample 0.001 mg/l, salt 600 mg/l
[9] = sample 0.01 mg/l, salt 300 mg/l
[10] = sample 0.01 mg/l, salt 400 mg/l
[11] = sample 0.01 mg/l, salt 500 mg/l
[12] = sample 0.01 mg/l, salt 600 mg/l

| SMILES | Germination rate (rice seed; [1]) | Germination rate (rice seed; [2]) | Germination rate (rice seed; [3]) | Germination rate (rice seed; [4]) | Germination rate (rice seed; [5]) | Germination rate (rice seed; [6]) | Germination rate (rice seed; [7]) | Germination rate (rice seed; [8]) | Germination rate (rice seed; [9]) | Germination rate (rice seed; [10]) | Germination rate (rice seed; [11]) | Germination rate (rice seed; [12]) | Germination rate (rice seed; sample 0.1 mg/l, salt 300 mg/l) | Germination rate (rice seed; sample 0.1 mg/l, salt 400 mg/l) | Germination rate (rice seed; sample 0.1 mg/l, salt 500 mg/l) | Germination rate (rice seed; sample 0.1 mg/l, salt 600 mg/l) | Germination rate (rice seed; sample 1 mg/l, salt 300 mg/l) | Germination rate (rice seed; sample 1 mg/l, salt 400 mg/l) | Germination rate (rice seed; sample 1 mg/l, salt 500 mg/l) | Germination rate (rice seed; sample 1 mg/l, salt 600 mg/l) | also measured |
| --- | --- | --- | --- | --- | --- | --- | --- | --- | --- | --- | --- | --- | --- | --- | --- | --- | --- | --- | --- | --- | --- |
| CC(C)[C@H](C)[C@@H](O)[C@H](O)[C@@H](C)[C@H]1CCC2C3COC(=O)C4C[C@H](O)[C@H](O)C[C@]4(C)C3CC[C@@]21C (stereo partly shown) [BR1] | 51% | 48% | 42% | 36% | 53% | 49% | 45% | 37% | 55% | 52% | 47% | 39% | 58% | 52% | 49% | 40% | 62% | 55% | 50% | 42% | Average angle (rice; 0.0001 mg/l): 5.34 degree; Total angle (rice; 0.0001 mg/l): 106.8 degree; Average angle (rice; 0.001 mg/l): 11.27 degree; Total angle (rice; 0.001 mg/l): 225.4 degree; Average angle (rice; 0.01 mg/l): 21.05 degree; Total angle (rice; 0.01 mg/l): 421 degree; Average angle (rice; 0.1 mg/l): 36.25 degree; Total angle (rice; 0.1 mg/l): 725 degree; Average angle (rice; 1 mg/l): 110.75 degree; Total angle (rice; 1 mg/l): 2215 degree; Effects on leaf inclination compared among analogues (rice; in the case of high concentrations): more than those of BR2, BR3 and BR4 |
| CC[C@@H](C(C)C)[C@@H](O)[C@H](O)[C@@H](C)[C@H]1CCC2C3COC(=O)C4C[C@H](O)[C@H](O)C[C@]4(C)C3CC[C@@]21C (stereo partly shown) [BR2] | 45% | 41% | 39% | 36% | 50% | 42% | 40% | 36% | 50% | 51% | 47% | 39% | 50% | 50% | 46% | 38% | 58% | 51% | 46% | 38% | Average angle (rice; 0.0001 mg/l): 4.025 degree; Total angle (rice; 0.0001 mg/l): 80.5 degree; Average angle (rice; 0.001 mg/l): 7.28 degree; Total angle (rice; 0.001 mg/l): 145.6 degree; Average angle (rice; 0.01 mg/l): 13.25 degree; Total angle (rice; 0.01 mg/l): 265 degree; Average angle (rice; 0.1 mg/l): 21.15 degree; Total angle (rice; 0.1 mg/l): 423 degree; Average angle (rice; 1 mg/l): 71.25 degree; Total angle (rice; 1 mg/l): 1425 degree |
| C=C(C(C)C)[C@@H](O)[C@H](O)[C@@H](C)[C@H]1CCC2C3COC(=O)C4C[C@H](O)[C@H](O)C[C@]4(C)C3CC[C@@]21C (stereo partly shown) [BR3] | 50% | 45% | 39% | 32% | 50% | 43% | 40% | 33% | 51% | 50% | 47% | 39% | 50% | 50% | 41% | 38% | 52% | 46% | 40% | 38% | Average angle (rice; 0.0001 mg/l): 3.84 degree; Total angle (rice; 0.0001 mg/l): 76.8 degree; Average angle (rice; 0.001 mg/l): 6.8 degree; Total angle (rice; 0.001 mg/l): 136 degree; Average angle (rice; 0.01 mg/l): 12.15 degree; Total angle (rice; 0.01 mg/l): 243 degree; Average angle (rice; 0.1 mg/l): 21 degree; Total angle (rice; 0.1 mg/l): 420 degree; Average angle (rice; 1 mg/l): 65.3 degree; Total angle (rice; 1 mg/l): 1306 degree |
| CC(C)[C@H](C)[C@@H](O)[C@H](O)[C@@H](C)[C@H]1CCC2C3CC(=O)C4C[C@H](O)CC[C@]4(C)C3CC[C@@]21C (stereo partly shown) [BR4] | 50% | 47% | 42% | 36% | 51% | 49% | 43% | 37% | 55% | 52% | 47% | 39% | 58% | 50% | 49% | 40% | 60% | 55% | 50% | 41% | Average angle (rice; 0.0001 mg/l): 3.8 degree; Total angle (rice; 0.0001 mg/l): 76 degree; Average angle (rice; 0.001 mg/l): 6.5 degree; Total angle (rice; 0.001 mg/l): 130 degree; Average angle (rice; 0.01 mg/l): 12.25 degree; Total angle (rice; 0.01 mg/l): 245 degree; Average angle (rice; 0.1 mg/l): 21.4 degree; Total angle (rice; 0.1 mg/l): 428 degree; Average angle (rice; 1 mg/l): 64 degree; Total angle (rice; 1 mg/l): 1280 degree |
